Assay results from patent publication US20210046063A1 (University of Kentucky Research Foundation, priority 2019, published 2021).
Entries after “also recorded” stand apart in the source; their conditions may differ.

Tests used:
[1] = test system: LLC1 cells; test: LLC1-derived lung tumor nodules in mice; type: in vivo; conditions: FIG. 2
Method: Mice were injected i.v. with LLC1 cells, and 24 h later injected i.p. with CQ (25 mg/kg body weight), CZT (10 mg/kg body weight), CQ+CZT (25 and 10 mg/kg, resp.) or vehicle once every day for 5 consecutive days. After 28 days, the lungs were scored for tumor nodules. *P<0.01 by Anova test.

[2] = test system: Par-4 secretion; conditions: cited from earlier work
[3] = test system: lung cancer cell lines (A549/EML4-ALK, A549, A549TR, H1299, KP-7B); test: Apoptosis of lung cancer cells (ICC for active caspase-3, scored by confocal microscopy); type: cell-based; conditions: 24 h
Method: Lung cancer cells treated with vehicle, CQ (100 nM), CZT (25 μM), and a combination of CZT (1 μM) and CQ (25 nM) for 24 h.

[4] = test system: GRP78 on lung cancer cell surface; test: Analysis for GRP78 at the cell surface of lung cancer cells; type: cell-based; conditions: CZT (1 μM), 24 h, FIG. 1B
Excerpt: Analysis for GRP78 at the cell surface. Mean+SD shown. *P<0.01 by Anova or Student's t test. P>0.05 by Anova.
A lack of cell surface […] expression may prevent secreted Par-4 from inducing apoptosis in cancer cells.

[5] = test system: Par-4; conditions: cancer patients, Phase 1 clinical trials; cited from earlier work

For `CCN(CC)CCCC(C)Nc1ccnc2cc(Cl)ccc12` (stereo not drawn) [CQ, Chloroquine], the “inhibition of lung tumor nodules by CQ in the presence of CZT, relative to CZT or CQ administered separately” value ([1]; LLC1-derived nodules in mice, CQ 25 mg/kg + CZT 10 mg/kg i.p.) is given as “significantly greater inhibition”, the “Par-4 secretion from lung cancer cells” value ([2]; lung cancer cells) is given as “did not show secretion of Par-4” and the “Par-4 secretion from normal cells” value ([2]; normal cells, cell culture and mice) is given as “increased Par-4 secretion from normal cells”. The “apoptosis, CQ in conjunction with CZT added directly to cancer cells” value ([3]; combination of CZT (1 μM) and CQ (25 nM), P>0.05, FIG. 1C) was “did not induce apoptosis”.

In the case of `C[C@@H](Oc1cc(-c2cnn(C3CCNCC3)c2)cnc1N)c1c(Cl)ccc(F)c1Cl` [CZT, Crizotinib], the “inhibition of lung tumor growth (lung tumor nodules)” value ([1]; LLC1 cells i.v., i.p. CQ 25 mg/kg, CZT 10 mg/kg, once daily for 5 days, lungs scored after 28 days) is reported as “significant inhibition of lung tumor growth; also recorded: showed an effect” and the “GRP78 expression at the cell surface” value [4] is reported as “upregulates GRP78 expression on the surface of lung cancer cells; also recorded: elevation of Par-4 receptor GRP78 on lung tumor cell surface”.

For `CCN(CCO)CCCC(C)Nc1ccnc2cc(Cl)ccc12` (stereo not drawn) [HCQ, hydroxychloroquine], the “Par-4 levels in plasma” value [5] is given as “elevated Par-4 levels in the plasma” and the “apoptosis in patients' tumors” value [5] is given as “induced apoptosis in their tumors”.

B1: recombinant Par-4: recombinant tumor suppressor Prostate Apoptosis Response-4 protein, binds receptor GRP78 (protein, UniProt Q96IZ0 1-340, looked up)
PRKC apoptosis WT1 regulator …: MATGGYRTSSGLGGSTTDFLEEWKAKREKMRAKQNPPGPAPPGGGSSDAAGKPPAGALGTPAAAAANELNNNLPGGAPAAPAVPGPGGVNCAVGSAMLTRAAPGPRRSEDEPPAASASAAPPPQRDEEEPDGVPEKGKSSGPSARKGKGQIEKRKLREKRRSTGVVNIPAAECLDEYEDDEAGQKERKREDAITQQNTIQNEAVNLLDPGSSYLLQEPPRTVSGRYKSTTSVSEEDVSSRYSRTDRSGFPRYNRDANVSGTLVSSSTLEKKIEDLEKEVVRERQENLRLVRLMQDKEEMIGKLKEEIDLLNRDLDDIEDENEQLKQENKTLLKVVGQLTR
For B1, the “apoptosis (active caspase-3 positive cells), CZT together with recombinant Par-4” value ([3]; CZT (1 μM) + recombinant Par-4 (100 nM), A549/EML4-ALK, A549, A549TR, H1299, KP-7B cells, FIG. 1A) was “increased apoptosis”.
